For assay [1], the system named is Streptococcus pyogenes. The experiment in a line: Antibacterial activity against Streptococcus pyogenes after 18 hrs by macro dilution test. It counts as functional.
For assay [2], the system named is Staphylococcus aureus. The experiment in a line: Antibacterial activity against Staphylococcus aureus at 30 ug/disk after 18 hrs by disk diffusion method. The class given is functional. To be noted: read-out: IZ. (In general: Agar diffusion results depend on both activity and mobility in agar.)
Assay [3] deals with Escherichia coli. The experiment in a line: Antibacterial activity against Escherichia coli after 18 hrs by macro dilution test. It counts as functional.
Assay [4] concerns Salmonella enterica subsp. enterica. The experiment in a line: Antibacterial activity against Salmonella Typhimurium after 18 hrs by macro dilution test. The class given is functional, Salmonella enterica subsp. enterica serovar Typhimurium.
The test system of assay [5] is Escherichia coli. The experiment in a line: Antibacterial activity against Escherichia coli at 30 ug/disk after 18 hrs by disk diffusion method. It counts as functional. To be noted: read-out: IZ.
The subject of assay [6] is Streptococcus pyogenes. The experiment in a line: Antibacterial activity against Streptococcus pyogenes at 30 ug/disk after 18 hrs by disk diffusion method. It counts as functional. Conditions: read-out: IZ.
Assay [7] deals with Salmonella enterica subsp. enterica. The experiment in a line: Antibacterial activity against Salmonella Typhimurium at 30 ug/disk after 18 hrs by disk diffusion method. The class given is functional, Salmonella enterica subsp. enterica serovar Typhimurium. To be noted: read-out: IZ.
Assay [8] relates to Staphylococcus aureus. The experiment in a line: Antibacterial activity against Staphylococcus aureus after 18 hrs by macro dilution test. It counts as functional.
Assay [9] relates to Escherichia coli. The experiment in a line: Antibacterial activity against Escherichia coli at 100 ug/ml after 18 hrs by disk diffusion method. Conditions: read-out: IZ. The class given is functional.
The test system of assay [10] is Streptococcus pyogenes. The experiment in a line: Antibacterial activity against Streptococcus pyogenes at 100 ug/ml after 18 hrs by disk diffusion method. The class given is functional. To be noted: read-out: IZ.
The subject of assay [11] is Salmonella enterica subsp. enterica. The experiment in a line: Antibacterial activity against Salmonella Typhimurium at 100 ug/ml after 18 hrs by disk diffusion method. The class given is functional, Salmonella enterica subsp. enterica serovar Typhimurium. Conditions: read-out: IZ.
The subject of assay [12] is Staphylococcus aureus. The experiment in a line: Antibacterial activity against Staphylococcus aureus at 100 ug/ml after 18 hrs by disk diffusion method. It counts as functional. To be noted: read-out: IZ.

In brackets after ≈: the same amount, converted by molar mass.

What is called MIC is the least concentration at which growth counts as inhibited. A high value points to weaker potency. For the compound `CC1(C)S[C@@H]2[C@H](NC(=O)[C@H](N)c3ccc(O)cc3)C(=O)N2[C@H]1C(=O)O` [AMOXICILLIN], the MIC (against Streptococcus pyogenes [1]; with Escherichia coli [3]; in assay [4]; in the assay on Staphylococcus aureus [8]) was 32 µg/mL (≈ 87.6 µM) throughout. Moreover, the zone of inhibition at 30 µg/disc is 17 mm with Staphylococcus aureus [2], 20.2 mm in the assay on Escherichia coli [5], 18.2 mm in the assay on Streptococcus pyogenes [6] and 17.2 mm in assay [7].
For the compound `CC(C)CCC[C@@H](C)[C@H]1CC[C@H]2[C@@H]3C/C(=N/N=C4\SCC(=O)N4C4CCCC4)[C@H]4CCCC[C@]4(C)[C@H]3CC[C@]12C`, the MIC (in the assay with Streptococcus pyogenes [1]; in the assay with Escherichia coli [3]; in assay [4]; in the assay on Staphylococcus aureus [8]) was 128 µg/mL (≈ 225 µM) each time. Besides, the zone of inhibition at 100 µg/mL in the assay on Escherichia coli [9] is 14.2 mm; in the assay on Streptococcus pyogenes [10] it was 15.2 mm; in [11], 13.6 mm; with Staphylococcus aureus [12] it was 14.5 mm.
Turning to `CC(=O)O[C@H]1CC[C@@]2(C)[C@H](C1)/C(=N\N=C1/SCC(=O)N1C1CCCC1)C[C@@H]1[C@@H]2CC[C@]2(C)[C@@H]([C@H](C)CCCC(C)C)CC[C@@H]12`, the MIC in the assay with Streptococcus pyogenes [1] is 32 µg/mL (≈ 51.1 µM); against Escherichia coli [3] it was 32 µg/mL (≈ 51.1 µM); in assay [4] it was 64 µg/mL (≈ 102 µM); in the assay with Staphylococcus aureus [8], 64 µg/mL (≈ 102 µM). For the same compound, the zone of inhibition at 100 µg/mL in the assay on Escherichia coli [9] was 22.8 mm; in the assay with Streptococcus pyogenes [10], 21.4 mm; in assay [11], 19.6 mm; in the assay on Staphylococcus aureus [12], 18.5 mm.
Take `CC(C)CCC[C@@H](C)[C@H]1CC[C@H]2[C@@H]3C/C(=N/NC(=S)NC4CCCC4)[C@H]4CCCC[C@]4(C)[C@H]3CC[C@]12C`: the zone of inhibition at 100 µg/mL in the assay on Escherichia coli [9] worked out at 12.3 mm; in the assay with Streptococcus pyogenes [10], 10.2 mm; in [11] it was 10.4 mm; with Staphylococcus aureus [12], 9.4 mm.
Consider `CC(C)CCC[C@@H](C)[C@H]1CC[C@H]2[C@@H]3C/C(=N/NC(=S)NC4CCCC4)[C@H]4C[C@@H](Cl)CC[C@]4(C)[C@H]3CC[C@]12C`, for which the zone of inhibition at 100 µg/mL in the assay with Escherichia coli [9] is 11.7 mm; in the assay with Streptococcus pyogenes [10], 10.2 mm; in assay [11], 11.2 mm; in the assay on Staphylococcus aureus [12], 11.5 mm.
For `CC(C)CCC[C@@H](C)[C@H]1CC[C@H]2[C@@H]3C/C(=N/N=C4\SCC(=O)N4C4CCCC4)[C@H]4C[C@@H](Cl)CC[C@]4(C)[C@H]3CC[C@]12C`, the MIC with Streptococcus pyogenes [1] came out at 32 µg/mL (≈ 53.1 µM); in the assay on Escherichia coli [3], 64 µg/mL (≈ 106 µM); in assay [4], 64 µg/mL (≈ 106 µM); in the assay with Staphylococcus aureus [8] it was 32 µg/mL (≈ 53.1 µM). Further, the zone of inhibition at 100 µg/mL with Escherichia coli [9] came to 22.5 mm; with Streptococcus pyogenes [10], 21.4 mm; in assay [11], 19.4 mm; with Staphylococcus aureus [12] it was 20.4 mm.
With `CC(=O)O[C@H]1CC[C@@]2(C)[C@H](C1)/C(=N\NC(=S)NC1CCCC1)C[C@@H]1[C@@H]2CC[C@]2(C)[C@@H]([C@H](C)CCCC(C)C)CC[C@@H]12`, the zone of inhibition at 100 µg/mL in the assay on Escherichia coli [9] turned out to be 13.3 mm; with Streptococcus pyogenes [10], 11.4 mm; in assay [11], 10.4 mm; in the assay with Staphylococcus aureus [12] it was 12.6 mm.
